In publication PMC12691689, “Bacteria export alarmone synthetases that produce (p)ppApp and (p)ppGpp” (mBio, 2025):

How the values were obtained:
Format in all cases: biochemical
VpEAS = biological target: T1, VpEAS (Vibrio parahaemolyticus, UniProt Q87Q55); assay: anion-exchange chromatography of lysate reaction, pppGpp-2S formation; conditions: 5 mM ATPγS, 1 mM GTPγS, 10 mM MgCl2, 0.1 mM MnCl2, pH 7.5, 37 °C, 5 min
T1 construct: gene VP1295; recombinant from pET29b in E. coli BL21(DE3), cleared lysate

[1] = biological target: T2, SaEAS (SaEAS-FLAG, secreted SaEASΔSP-FLAG) (Streptomyces albidoflavus, UniProt A0AA37FDV0); assay: anion-exchange chromatography, competition of PPi acceptors, Km from calculated acceptor-site occupancy; conditions: 5 mM ATP, 5 mM free MgCl2, 0.1 mM MnCl2, pH 7.5, 37 °C
T2 construct: gene ScoT_12220; full-length gene with FLAG tag overexpressed (ermE* promoter) in S. albidoflavus SM254 delta-SaEAS; signal peptide cleaved on secretion; diluted spent medium used without purification
From the text: anion-exchange chromatography, competition of PPi acceptors, Km from calculated acceptor-site occupancy on SaEAS (SaEAS-FLAG, secreted SaEASΔSP-FLAG) | we then calculated the acceptor-site occupancy and Km for the non-ATP substrate

[2] = biological target: T2, SaEAS (SaEAS-FLAG, secreted SaEASΔSP-FLAG); assay: anion-exchange chromatography, initial velocity of pppGpp synthesis; conditions: ATP as PPi donor; 5 mM GTP acceptor, 0.03-1 mM ATP, 5 mM free MgCl2, 0.1 mM MnCl2, pH 7.5, 37 °C, PK/PEP
[3] = biological target: T2, SaEAS (SaEAS-FLAG, secreted SaEASΔSP-FLAG); assay: anion-exchange chromatography, initial velocity of pppApp synthesis; conditions: ATP as PPi acceptor (second site); 0.5-10 mM ATP as donor and acceptor, 5 mM free MgCl2, 0.1 mM MnCl2, pH 7.5, 37 °C
From the text: anion-exchange chromatography, initial velocity of pppApp synthesis on SaEAS (SaEAS-FLAG, secreted SaEASΔSP-FLAG) | the Michaelis-Menten relationship provides the Km for ATP as a PPi acceptor

[4] = biological target: T2, SaEAS (SaEAS-FLAG, secreted SaEASΔSP-FLAG); assay: anion-exchange chromatography, competition of PPi acceptors, Km derived from Vmax and Vmax/Km; conditions: PPi acceptor; ATP donor, 5 mM free MgCl2, 0.1 mM MnCl2, pH 7.5, 37 °C; read-out: Km, acceptor(GTP)
From the text: anion-exchange chromatography, competition of PPi acceptors, Km derived from Vmax and Vmax/Km on SaEAS (SaEAS-FLAG, secreted SaEASΔSP-FLAG) | We next used Vmax(pppGpp) to calculate Km, acceptor(GTP).

T2 sequence (A0AA37FDV0 entry or part of it, stated change not applied): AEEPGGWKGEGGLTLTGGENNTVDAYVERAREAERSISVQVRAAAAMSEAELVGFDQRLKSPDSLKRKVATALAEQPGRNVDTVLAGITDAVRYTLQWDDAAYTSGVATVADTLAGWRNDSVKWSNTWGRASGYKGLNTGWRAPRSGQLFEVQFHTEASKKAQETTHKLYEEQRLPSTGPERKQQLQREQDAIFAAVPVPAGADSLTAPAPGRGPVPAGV
T1 sequence (Q87Q55 entry or part of it): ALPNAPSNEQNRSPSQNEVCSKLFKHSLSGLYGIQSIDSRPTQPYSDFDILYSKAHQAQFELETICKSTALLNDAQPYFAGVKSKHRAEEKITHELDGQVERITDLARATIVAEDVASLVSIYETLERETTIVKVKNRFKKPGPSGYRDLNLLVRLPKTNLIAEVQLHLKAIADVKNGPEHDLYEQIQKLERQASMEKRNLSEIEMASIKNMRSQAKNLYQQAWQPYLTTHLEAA

Nc1ncnc2c1ncn2[C@@H]1O[C@H](COP(=O)(O)OP(=O)(O)OP(O)(O)=S)[C@@H](O)[C@H]1O [ATPγS]
anion-exchange chromatography of lysate reaction, pppGpp-2S formation (VpEAS; PPi donor): Reactions were carried out using the non-hydrolyzable thiophosphates ATPγS and GTPγS

Nc1ncnc2c1ncn2[C@@H]1O[C@H](COP(=O)(O)O)[C@@H](O)[C@H]1O [AMP]
Km ([1]; 5 mM AMP): 2200 ± 200 µM

Nc1nc2c(ncn2[C@@H]2O[C@H](COP(=O)(O)OP(=O)(O)OP(O)(O)=S)[C@@H](O)[C@H]2O)c(=O)[nH]1 [GTPγS]
anion-exchange chromatography of lysate reaction, pppGpp-2S formation (VpEAS; PPi acceptor): VpEAS specifically uses GTPγS as an acceptor nucleotide to produce pppGpp-2S

Nc1nc2c(ncn2[C@@H]2O[C@H](COP(=O)(O)O)[C@@H](O)[C@H]2O)c(=O)[nH]1 [GMP]
Km ([1]; 0.5 mM GMP): 64 ± 3 µM

Nc1ncnc2c1ncn2[C@@H]1O[C@H](COP(=O)(O)OP(=O)(O)O)[C@@H](O)[C@H]1O [ADP]
Km ([1]; 5 mM ADP): 930 ± 40 µM

Nc1ncnc2c1ncn2[C@@H]1O[C@H](COP(=O)(O)OP(=O)(O)OP(=O)(O)O)[C@@H](O)[C@H]1O [ATP]
Km [2]: 82 µM | Km, aceptor(ATP) [3]: 1400 µM

Nc1nc2c(ncn2[C@@H]2O[C@H](COP(=O)(O)OP(=O)(O)OP(=O)(O)O)[C@@H](O)[C@H]2O)c(=O)[nH]1 [GTP]
Km [4]: 50 ± 4 µM
